Test results taken from patent publication US7294629B2, “Quinazoline derivatives” (Mitsubishi Pharma Corporation, priority 2001, dated 2007).

These compounds were tested against T1, mutated c-erbB2 (HER2) constitutively activated, in transformed NIH3T3 cells (A4 cell) (Homo sapiens, UniProt P04626, V659E) (assay: HER2 tyrosine kinase inhibitory action (phosphotyrosine Western blotting in A4 cells)). Conditions: 0.1 μM, 2 hrs, signal without compound = 100%, read-out: % of control at 0.1 μM (phosphorylation signal).
T1 construct: expressed in transfected cells; host or cells: NIH3T3 mouse fibroblast cell line (A4 cell)
T1 sequence (P04626 23-1255 V659E): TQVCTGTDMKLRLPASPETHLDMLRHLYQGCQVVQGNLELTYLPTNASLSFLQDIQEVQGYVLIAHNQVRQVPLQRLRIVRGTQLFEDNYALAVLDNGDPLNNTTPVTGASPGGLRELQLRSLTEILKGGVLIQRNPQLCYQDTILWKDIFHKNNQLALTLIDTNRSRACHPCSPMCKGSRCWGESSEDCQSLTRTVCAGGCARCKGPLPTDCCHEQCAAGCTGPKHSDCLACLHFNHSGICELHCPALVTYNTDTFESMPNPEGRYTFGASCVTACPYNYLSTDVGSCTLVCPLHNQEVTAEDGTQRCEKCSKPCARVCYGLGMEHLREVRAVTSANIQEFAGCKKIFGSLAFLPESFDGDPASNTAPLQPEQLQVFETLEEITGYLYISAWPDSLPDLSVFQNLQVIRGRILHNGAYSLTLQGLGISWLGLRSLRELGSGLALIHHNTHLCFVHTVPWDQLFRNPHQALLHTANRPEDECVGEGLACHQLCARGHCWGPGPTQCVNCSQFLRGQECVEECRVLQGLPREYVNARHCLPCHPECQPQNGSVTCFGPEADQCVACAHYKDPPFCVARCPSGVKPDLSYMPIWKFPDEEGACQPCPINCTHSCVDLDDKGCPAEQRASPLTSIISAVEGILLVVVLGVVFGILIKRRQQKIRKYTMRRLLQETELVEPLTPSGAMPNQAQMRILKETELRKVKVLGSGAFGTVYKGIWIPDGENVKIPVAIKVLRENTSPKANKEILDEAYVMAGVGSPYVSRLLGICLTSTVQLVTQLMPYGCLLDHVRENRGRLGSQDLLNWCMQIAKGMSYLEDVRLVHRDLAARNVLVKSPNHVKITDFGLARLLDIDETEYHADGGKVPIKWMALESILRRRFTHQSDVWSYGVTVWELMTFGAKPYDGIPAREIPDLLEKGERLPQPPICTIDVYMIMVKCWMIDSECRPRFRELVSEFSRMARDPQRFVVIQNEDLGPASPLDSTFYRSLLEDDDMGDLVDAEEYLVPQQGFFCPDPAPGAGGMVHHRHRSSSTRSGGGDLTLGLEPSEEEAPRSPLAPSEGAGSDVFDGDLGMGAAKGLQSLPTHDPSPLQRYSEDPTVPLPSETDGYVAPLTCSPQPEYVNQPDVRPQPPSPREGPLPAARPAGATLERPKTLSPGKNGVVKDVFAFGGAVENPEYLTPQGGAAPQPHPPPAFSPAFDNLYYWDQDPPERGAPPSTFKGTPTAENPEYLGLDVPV
Format: cell-based
Experimental: (2) HER2 Tyrosine Kinase Inhibitory Action (Method)
As the cells, NIH3T3 mouse fibroblast cell line (provided by Institute of Development, Aging and Cancer, Tohoku University Cell Resource Center for Biomedical Research) transformed with mutated c-erbB2 constitutively activated by substituting valine at position 659 for glutamic acid was used. In the following, the cell is referred to as A4 cell. This cell line was cultured in DMEM/F12 mixed medium (hereinafter a complete medium) supplemented with 10% FBS in a plastic dish at 37° C., 5% CO2, 95% air.
The A4 cells suspended in a complete medium were seeded in a 12-well plate at 3×10^5/well, and confluent cells were cultured with the compound at 37° C. for 2 hrs. The cells were washed once with PBS, re-suspended in a lysis buffer (60 mM Tris (pH 6.8), 2% SDS, 10% glycerol, 5% beta-mercaptoethanol, 0.001% bromophenol blue), treated by ultrasonication and applied to Western blotting as a whole cell lysate.
The whole cell lysate (protein amount 25 μg) was applied to 7.5% SDS-polyacrylamide electrophoresis and transferred to PVDF membrane. The membrane was blocked and incubated with antiphosphotyrosine mouse monoclonal antibody in Tris buffer containing 0.1% Tween 20 and then treated with HRP-labeled antimouse second antibody. The membrane was developed with a chemiluminescent reagent. The chemiluminescence was taken with a lumino CCD camera and recorded electronically.
`C=CC(=O)Nc1cc2c(Nc3ccc(F)c(Cl)c3)ncnc2cc1C#CCCN1CCN(C)CC1` [1ac] gave a remaining activity at 0.1 µM of 9%.
For `C=CC(=O)Nc1cc2c(Nc3ccc(F)c(Cl)c3)ncnc2cc1C#CC(C)(C)N1CCNCC1` [1ap], the remaining activity at 0.1 µM was 74%.

Same assay, conditions: 1 μM, 2 hrs, signal without compound = 100%, read-out: % of control at 1 μM (phosphorylation signal)
`C=CC(=O)Nc1cc2c(Nc3ccc(F)c(Cl)c3)ncnc2cc1C#CCCN1CCN(C)CC1` [1ac] was tested, and the remaining activity at 1 µM was 3%.
Compound `C=CC(=O)Nc1cc2c(Nc3ccc(F)c(Cl)c3)ncnc2cc1C#CC(C)(C)N1CCNCC1` [1ap] has a remaining activity at 1 µM of 24%.

These compounds were tested on A431 tumor (assay: In vivo antitumor effect on A431 tumor in nude mice). Conditions: 1 mg/kg orally once a day for 14 days.
Set-up: species or system Balb/c female nude mice
Experimental: (4) In vivo Antitumor Effect
Human epidermoid cancer cell A431 (5×10^6/100 μl) suspended in PBS was subcutaneously implanted on the back of Balb/c female nude mice (Balb/cAJcl-nu mouse, Clea Japan, Inc., 5-week-old when purchased) and when the average volume of the implanted tumor reached approximately about 100 mm^3 in about 7 days, the mice were allocated (4 per group) to make the average tumor volume the same for each group. The tumor volume was obtained by measuring the long diameter and the short diameter with a caliper and according to: [(short diameter)^2×long diameter/2]=tumor volume [mm^3]. A pharmaceutical agent was forcibly administered orally once a day for 14 consecutive days from the day of the allocation, and the drug was not given to the mice of the control group. The relative tumor growth rate, with the tumor volume of the day of start of the administration as 1, was calculated for the control group and the treatment group. Antitumor effect (%) of control=(relative tumor growth rate of treatment group on the last day −1)/(relative tumor growth rate of control group on the last day −1)×100
`C=CC(=O)Nc1cc2c(Nc3ccc(F)c(Cl)c3)ncnc2cc1C#CC(C)(C)N1CCN(C)CC1` [compound 1a.2TsOH, 1a.ditosylate] was tested, and the “% of control (antitumor effect)” value was 41.0%.

Same assay, conditions: 1 mg/kg orally once a day for 14 days; volume at start = 1
With `C=CC(=O)Nc1cc2c(Nc3ccc(F)c(Cl)c3)ncnc2cc1C#CC(C)(C)N1CCN(C)CC1` [compound 1a.2TsOH, 1a.ditosylate] the “relative tumor growth rate” value was 2.95.

Same assay, conditions: A431 tumor, oral, 14 days
With `C=CC(=O)Nc1cc2c(Nc3ccc(F)c(Cl)c3)ncnc2cc1C#CC(C)(C)N1CCN(C)CC1` [compound 1a.2TsOH, 1a.ditosylate] the “antitumor effect (in words)” value was “dose-dependent antitumor effect”.

What follows are compounds tested against T2, EGF receptor partially purified by A431 cell line (Homo sapiens, UniProt P00533) (assay: EGFR tyrosine kinase inhibitory action (A431 cell membrane fraction, 32P-ATP, Angiotensin II substrate)). Conditions: EGF-stimulated, 10 μM ATP, in ice for 30 min.
T2 construct: A431 cell membrane fraction, which was used for the assay as an enzyme source of partially purified EGF receptor; endogenous in cells; host or cells: A431 human epidermoid cancer cells (membrane fraction, 100,000 G pellet)
T2 sequence (P00533 25-1210): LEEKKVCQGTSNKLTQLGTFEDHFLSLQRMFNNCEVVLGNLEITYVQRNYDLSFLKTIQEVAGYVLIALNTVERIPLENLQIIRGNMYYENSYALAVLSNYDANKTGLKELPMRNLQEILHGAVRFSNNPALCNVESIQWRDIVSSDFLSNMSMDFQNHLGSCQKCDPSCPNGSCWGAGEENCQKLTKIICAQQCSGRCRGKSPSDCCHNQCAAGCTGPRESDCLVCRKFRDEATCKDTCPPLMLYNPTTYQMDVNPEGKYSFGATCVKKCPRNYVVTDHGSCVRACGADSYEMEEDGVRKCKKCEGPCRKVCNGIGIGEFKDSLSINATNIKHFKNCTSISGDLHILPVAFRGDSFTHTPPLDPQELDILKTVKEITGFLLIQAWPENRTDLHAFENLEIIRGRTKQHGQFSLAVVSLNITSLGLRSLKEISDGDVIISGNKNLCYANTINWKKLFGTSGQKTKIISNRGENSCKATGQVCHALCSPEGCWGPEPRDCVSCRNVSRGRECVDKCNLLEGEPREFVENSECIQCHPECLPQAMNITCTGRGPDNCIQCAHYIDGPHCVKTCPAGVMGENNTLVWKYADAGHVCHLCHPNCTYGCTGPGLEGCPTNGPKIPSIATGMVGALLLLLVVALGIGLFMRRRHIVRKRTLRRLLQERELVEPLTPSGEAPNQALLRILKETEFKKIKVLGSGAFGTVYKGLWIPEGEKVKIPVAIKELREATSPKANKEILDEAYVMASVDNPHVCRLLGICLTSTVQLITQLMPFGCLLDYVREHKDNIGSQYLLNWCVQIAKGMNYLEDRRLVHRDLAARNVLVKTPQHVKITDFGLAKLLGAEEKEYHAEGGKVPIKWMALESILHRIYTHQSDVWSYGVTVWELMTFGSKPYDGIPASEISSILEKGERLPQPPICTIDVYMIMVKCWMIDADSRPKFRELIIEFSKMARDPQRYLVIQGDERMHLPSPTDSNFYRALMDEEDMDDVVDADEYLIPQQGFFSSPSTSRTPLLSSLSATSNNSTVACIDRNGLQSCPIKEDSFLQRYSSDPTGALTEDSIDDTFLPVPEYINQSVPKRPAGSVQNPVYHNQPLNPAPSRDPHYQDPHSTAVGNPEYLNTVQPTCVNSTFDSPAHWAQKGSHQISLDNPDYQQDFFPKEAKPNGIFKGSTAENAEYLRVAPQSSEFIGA
Format: biochemical
Experimental: Specific method was as follows.
A431 cells were cultured in Dulbecco's Modified Eagle Medium (DMEM) containing 10% of fetal calf serum (FBS) at 37° C. under 5% carbon dioxide gas, and homogenized in a solution containing 10 mM N-2-hydroxyethylpiperazino-N′-2-ethanesulfonic acid (Hepes) buffer (pH 7.4), 0.25 M sucrose and 0.1 mM EDTA, and separated by centrifugation at 3000 G for 5 min. The supernatant was separated by centrifugation at 100,000 G for 30 min to separate A431 cell membrane fraction, which was used for the assay as an enzyme source of partially purified EGF receptor.
The reaction was carried out in ice for 30 min and 6 μL of 10 mg/mL bovine serum albumin and 25 μL of 20% trichloroacetic acid were added to stop the reaction. The reaction mixture was left in ice as it was for 30 min.
The mixture was centrifuged at 5000 G for 2 min and the supernatant was sampled by 40 μL and adsorbed on P81 phosphocellulose paper. […] This rinsing was repeated 4 times. The paper was taken out, the ^32P count was measured on a liquid scintillation counter and this value was taken as A.
Simultaneously, a reaction without the test substance and a reaction without the test substance and EGF were also measured and the counts thereof were taken as B and C, respectively.
The tyrosine kinase inhibitory rate can be determined from the following formula based on these values. Percent Inhibition (%)=100−{(A−C)/(B−C)}×100
`C#Cc1cccc(Nc2ncnc3cc(OCC)c(C#CC(C)(C)N4CCN(C)CC4)cc23)c1` [1bam] showed an IC50 of 3.3 nM.
Compound `C#Cc1cccc(Nc2ncnc3cc(OCC)c(C#CC(C)(C)N4CCOCC4)cc23)c1` [1baj] has an IC50 of 3.3 nM.
Work on `COc1cc2ncnc(Nc3ccc(F)c(Cl)c3)c2cc1C#CC(C)(C)N1CCNCC1` [1bc] yielded an IC50 of 1.6 nM.
`C=CC(=O)Nc1cc2c(Nc3ccc(F)c(Cl)c3)ncnc2cc1C#CC(C)(C)N(C)C1CCN(C)CC1` [1ab] was tested, and the IC50 was 2.1 nM.
`CCOc1cc2ncnc(Nc3ccc(F)c(Cl)c3)c2cc1C#CC(C)(C)N1CCN(S(C)(=O)=O)CC1` [1bad] gave an IC50 of 4 nM.
`C=CC(=O)Nc1cc2c(Nc3ccc(F)c(Cl)c3)ncnc2cc1C#CCCN1CCN(C)CC1` [1ac] was tested, and the IC50 was < 1 nM.
`CCOc1cc2ncnc(Nc3ccc(F)c(Cl)c3)c2cc1C#CC1(N2CCN(C)CC2)CCCCC1` [1bt] gave an IC50 of 5 nM.
`CCOc1cc2ncnc(Nc3ccc(F)c(Cl)c3)c2cc1C#CC(C)(C)N1CCN(CCOC)CC1` [1bah] showed an IC50 of 2.6 nM.
`CC(C)(C#Cc1cc2ncnc(Nc3ccc(F)c(Cl)c3)c2cc1NS(C)(=O)=O)N1CCCC1` [1cx] was tested, and the IC50 was 2.8 nM.
Work on `CCOc1cc2ncnc(Nc3ccc(F)c(Cl)c3)c2cc1C#CC(C)(C)N(C)CCN(C)C` [1bo] yielded an IC50 of 2.2 nM.
For `CCOc1cc2ncnc(Nc3ccc(F)c(Cl)c3)c2cc1C#CC(C)(C)N1CCN(C(C)=O)CC1` [1baa], the IC50 was 2.8 nM.
`C=CC(=O)Nc1cc2c(Nc3ccc(F)c(Cl)c3)ncnc2cc1C#CC(C)(C)N1CCNCC1` [1ap] showed an IC50 of 2.4 nM.
`C#Cc1cccc(Nc2ncnc3cc(OCC)c(C#CC(C)(C)N4CCN(CC#N)CC4)cc23)c1` [1bai] gave an IC50 of 1.8 nM.
Compound `C=CC(=O)Nc1cc2c(Nc3ccc(F)c(Cl)c3)ncnc2cc1C#CC(C)(C)N1CCC(N(C)C)CC1` [1aa] has an IC50 of 1.7 nM.
`CCOc1cc2ncnc(Nc3ccc(F)c(Cl)c3)c2cc1C#CC(C)(C)N1CCN(CC#N)CC1` [1bs] showed an IC50 of 1.1 nM.
Compound `CCOc1cc2ncnc(Nc3ccc(F)c(Cl)c3)c2cc1C#CC(C)(C)N(CC)CCC(=O)OC` [1bab] has an IC50 of 5.6 nM.
`CC(C)(C#Cc1cc2ncnc(Nc3ccc(F)c(Cl)c3)c2cc1NS(C)(=O)=O)N1CCN(CCC#N)CC1` [1cw] gave an IC50 of 2.5 nM.
Compound `CCCN1CCN(C(C)(C)C#Cc2cc3c(Nc4ccc(F)c(Cl)c4)ncnc3cc2OC)CC1` [1bd] has an IC50 of 3 nM.
For `COc1cc2ncnc(Nc3ccc(F)c(Cl)c3)c2cc1/C=C/C(C)(C)N1CCN(C)CC1` [1bf], the IC50 was 0.82 nM.
`CCOc1cc2ncnc(Nc3ccc(F)c(Cl)c3)c2cc1C#CC(C)(C)N1CCC(OC)CC1` [1baf] was tested, and the IC50 was 3.3 nM.
`CCOc1cc2ncnc(Nc3ccc(F)c(Cl)c3)c2cc1C#CC(C)(C)N1CCCN(C)CC1` [1bw] gave an IC50 of 2.8 nM.
Work on `COCCN1CCN(C(C)(C)C#Cc2cc3ncnc(Nc4ccc(F)c(Cl)c4)c3cc2NS(C)(=O)=O)CC1` [1cv] yielded an IC50 of 1.8 nM.
`C=CC(=O)Nc1cc2c(Nc3ccc(F)c(Cl)c3)ncnc2cc1C#CC(C)(C)N1CCN(CC#N)CC1` [1c] was tested, and the IC50 was 3.9 nM.
With `CCOc1cc2ncnc(Nc3ccc(F)c(Cl)c3)c2cc1C#CC(C)(C)N(C)CCC#N` [1bm] the IC50 was 2.8 nM.
`CC(C)(C#Cc1cc2ncnc(Nc3ccc(F)c(Cl)c3)c2cc1NS(C)(=O)=O)N1CCN(CC#N)CC1` [1ca] was tested, and the IC50 was 7.7 nM.
For `CN1CCN(C2(C#Cc3cc4ncnc(Nc5ccc(F)c(Cl)c5)c4cc3NS(C)(=O)=O)CCCCC2)CC1` [1cm], the IC50 was 5.2 nM.
For `CCOc1cc2ncnc(Nc3ccc(F)c(Cl)c3)c2cc1C#CC(CC)(CC)N1CCN(C)CC1` [1bag], the IC50 was 5.1 nM.
For `CCOc1cc2ncnc(Nc3ccc(F)c(Cl)c3)c2cc1C#CC(C)(C)N(C)CCOC` [1bl], the IC50 was 2.2 nM.
With `CCOc1cc2ncnc(Nc3ccc(F)c(Cl)c3)c2cc1C#CC(C)(C)N1CCOCC1` [1bk] the IC50 was 2.1 nM.
`CCOc1cc2ncnc(Nc3ccc(F)c(Cl)c3)c2cc1C#CC(C)(C)N1CCN(CC)CC1` [1bz] was tested, and the IC50 was 2.2 nM.
`CCN(CCC(=O)OC)C(C)(C)C#Cc1cc2ncnc(Nc3ccc(F)c(Cl)c3)c2cc1NS(C)(=O)=O` [1cu] was tested, and the IC50 was 5.5 nM.
For `CCC(C#Cc1cc2ncnc(Nc3ccc(F)c(Cl)c3)c2cc1NS(C)(=O)=O)(CC)N1CCN(C)CC1` [1cr], the IC50 was 3.4 nM.
Compound `C#Cc1cccc(Nc2ncnc3cc(OCC)c(C#CC(C)(C)N(C)CCN(C)C)cc23)c1` [1ban] has an IC50 of 2.6 nM.
For `COc1cc2ncnc(Nc3ccc(F)c(Cl)c3)c2cc1C#CC(C)(C)N1CCN(C)CC1` [1ba], the IC50 was 1.1 nM.
`CN1CCC(N(C)C(C)(C)C#Cc2cc3ncnc(Nc4ccc(F)c(Cl)c4)c3cc2NS(C)(=O)=O)CC1` [1cj] gave an IC50 of 2.7 nM.
With `CCOc1cc2ncnc(Nc3ccc(F)c(Cl)c3)c2cc1C#CC(C)(C)N1CCN(CCC#N)CC1` [1bae] the IC50 was 2.5 nM.
For `COc1cc2c(Nc3ccc(F)c(Cl)c3)ncnc2cc1C#CC(C)(C)N1CCN(C)CC1` [1bi], the IC50 was 1 nM.
In the case of `CCOc1cc2ncnc(Nc3ccc(F)c(Cl)c3)c2cc1C#CC(C)(C)N1CCCCC1` [1bn], the IC50 is reported as 3.5 nM.
`CCOc1cc2ncnc(Nc3ccc(F)c(Cl)c3)c2cc1C#CC(C)(C)N(CC)CC` [1br] was tested, and the IC50 was 5.7 nM.
`CN1CCN(C(C)(C)C#Cc2cc3ncnc(Nc4ccc(F)c(Cl)c4)c3cc2NS(C)(=O)=O)CC1` [1cg] gave an IC50 of 2.1 nM.
In the case of `COc1cc2c(Nc3ccc(F)c(Cl)c3)ncnc2cc1C#CC(C)(C)N1CCN(CC#N)CC1` [1bj], the IC50 is reported as 2.9 nM.
`CCOc1cc2ncnc(Nc3ccc(F)c(Cl)c3)c2cc1C#CC(C)(C)NCCN1CCOCC1` [1bx] showed an IC50 of 3.4 nM.
`CCOCCN(CCOCC)C(C)(C)C#Cc1cc2c(Nc3ccc(F)c(Cl)c3)ncnc2cc1OCC` [1bu] gave an IC50 of 3.2 nM.
In the case of `CCOc1cc2ncnc(Nc3ccc(F)c(Cl)c3)c2cc1C#CC(C)(C)N1CCC(O)CC1` [1bv], the IC50 is reported as 1.5 nM.
Compound `CCN1CCN(C(C)(C)C#Cc2cc3ncnc(Nc4ccc(F)c(Cl)c4)c3cc2NS(C)(=O)=O)CC1` [1ch] has an IC50 of 2.6 nM.
Work on `COc1cc2ncnc(Nc3ccc(F)c(Cl)c3)c2cc1C#CC(C)(C)N1CCN(CC(C)C)CC1` [1be] yielded an IC50 of 8 nM.
With `CCOc1cc2ncnc(Nc3ccc(F)c(Cl)c3)c2cc1C#CC(C)(C)N1CCN(C)CC1` [1bp] the IC50 was 2.1 nM.
For `COc1cccc(Nc2ncnc3cc(OC)c(C#CC(C)(C)N4CCN(C)CC4)cc23)c1` [1bh], the IC50 was 4.4 nM.
`COc1cc2ncnc(Nc3ccc(F)c(Cl)c3)c2cc1C#CC(C)(C)N1CCN(CC#N)CC1` [1bb] was tested, and the IC50 was 1.3 nM.
Work on `C=CC(=O)Nc1cc2c(Nc3ccc(F)c(Cl)c3)ncnc2cc1C#CC(C)(C)N1CCOCC1` [1b] yielded an IC50 of 1.3 nM.
